Source: ChEMBL document CHEMBL1201862, “PubChem BioAssay data set” (2004)
Values joined by “and” are separate entries in the source; they are usually repeats but may differ in a detail not shown here. Identical values can stand only once. Active and inactive are the calls of the source.

Assays:
[1] = target: T1, Protein skinhead-1 (Caenorhabditis elegans, UniProt P34707); assay type: functional
T1 sequence (P34707 whole entry): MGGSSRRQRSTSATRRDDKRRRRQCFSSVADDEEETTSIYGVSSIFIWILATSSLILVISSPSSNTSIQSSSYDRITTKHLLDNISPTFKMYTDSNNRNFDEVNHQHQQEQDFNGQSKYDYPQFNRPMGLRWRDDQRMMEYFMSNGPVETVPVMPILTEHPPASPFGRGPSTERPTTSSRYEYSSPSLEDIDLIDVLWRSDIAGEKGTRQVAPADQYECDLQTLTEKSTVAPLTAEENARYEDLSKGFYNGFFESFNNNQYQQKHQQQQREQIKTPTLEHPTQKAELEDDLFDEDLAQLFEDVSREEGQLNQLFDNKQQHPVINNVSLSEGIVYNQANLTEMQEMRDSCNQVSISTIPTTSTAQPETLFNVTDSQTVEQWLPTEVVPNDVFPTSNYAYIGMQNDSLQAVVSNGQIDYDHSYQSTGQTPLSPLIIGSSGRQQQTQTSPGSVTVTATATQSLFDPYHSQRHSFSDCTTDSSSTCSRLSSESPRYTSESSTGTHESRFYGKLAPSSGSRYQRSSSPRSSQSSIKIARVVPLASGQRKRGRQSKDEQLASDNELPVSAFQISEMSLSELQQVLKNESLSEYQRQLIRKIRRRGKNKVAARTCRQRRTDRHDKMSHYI

[2] = target: T2, Histone-lysine N-methyltransferase NSD2 (Homo sapiens, UniProt O96028); assay type: biochemical
T2 sequence (O96028 whole entry): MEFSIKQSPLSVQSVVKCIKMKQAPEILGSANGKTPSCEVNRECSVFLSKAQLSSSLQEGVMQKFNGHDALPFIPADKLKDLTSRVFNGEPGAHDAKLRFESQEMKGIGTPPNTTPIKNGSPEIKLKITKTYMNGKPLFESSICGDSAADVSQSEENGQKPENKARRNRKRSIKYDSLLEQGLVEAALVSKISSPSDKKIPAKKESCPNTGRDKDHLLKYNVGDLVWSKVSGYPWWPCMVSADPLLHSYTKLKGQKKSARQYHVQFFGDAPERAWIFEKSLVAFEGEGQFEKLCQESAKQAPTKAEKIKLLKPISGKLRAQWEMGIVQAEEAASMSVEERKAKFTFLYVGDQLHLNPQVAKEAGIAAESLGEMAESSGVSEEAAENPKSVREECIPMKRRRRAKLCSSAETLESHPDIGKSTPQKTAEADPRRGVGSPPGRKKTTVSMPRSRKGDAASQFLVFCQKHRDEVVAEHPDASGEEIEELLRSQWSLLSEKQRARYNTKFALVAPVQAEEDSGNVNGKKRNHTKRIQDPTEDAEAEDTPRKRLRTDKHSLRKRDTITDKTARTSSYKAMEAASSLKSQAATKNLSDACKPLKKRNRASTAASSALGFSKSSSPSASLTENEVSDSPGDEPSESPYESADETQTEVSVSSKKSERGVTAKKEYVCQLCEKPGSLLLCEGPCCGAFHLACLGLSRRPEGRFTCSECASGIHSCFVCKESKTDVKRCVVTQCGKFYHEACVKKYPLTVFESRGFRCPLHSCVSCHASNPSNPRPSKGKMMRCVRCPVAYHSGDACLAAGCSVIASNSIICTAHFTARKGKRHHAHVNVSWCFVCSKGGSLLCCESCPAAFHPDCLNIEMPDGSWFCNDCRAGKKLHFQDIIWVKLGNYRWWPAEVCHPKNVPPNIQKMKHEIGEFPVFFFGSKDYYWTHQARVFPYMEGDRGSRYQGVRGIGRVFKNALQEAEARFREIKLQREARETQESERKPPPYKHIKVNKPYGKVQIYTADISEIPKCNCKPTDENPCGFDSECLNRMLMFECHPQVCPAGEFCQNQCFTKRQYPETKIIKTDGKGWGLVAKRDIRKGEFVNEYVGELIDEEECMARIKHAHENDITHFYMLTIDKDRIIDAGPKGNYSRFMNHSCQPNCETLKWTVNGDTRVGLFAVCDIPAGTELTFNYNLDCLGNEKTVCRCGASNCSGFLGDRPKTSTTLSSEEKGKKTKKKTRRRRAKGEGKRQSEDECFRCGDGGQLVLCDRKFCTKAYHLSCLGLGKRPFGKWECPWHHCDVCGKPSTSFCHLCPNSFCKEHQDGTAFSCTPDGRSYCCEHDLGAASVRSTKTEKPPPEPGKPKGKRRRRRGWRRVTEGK

[3] = target: T3, fMet-Leu-Phe receptor (Homo sapiens, UniProt P21462); test: formyl peptide receptor binders – dose response (AID 519); assay type: functional
T3 sequence (P21462 whole entry): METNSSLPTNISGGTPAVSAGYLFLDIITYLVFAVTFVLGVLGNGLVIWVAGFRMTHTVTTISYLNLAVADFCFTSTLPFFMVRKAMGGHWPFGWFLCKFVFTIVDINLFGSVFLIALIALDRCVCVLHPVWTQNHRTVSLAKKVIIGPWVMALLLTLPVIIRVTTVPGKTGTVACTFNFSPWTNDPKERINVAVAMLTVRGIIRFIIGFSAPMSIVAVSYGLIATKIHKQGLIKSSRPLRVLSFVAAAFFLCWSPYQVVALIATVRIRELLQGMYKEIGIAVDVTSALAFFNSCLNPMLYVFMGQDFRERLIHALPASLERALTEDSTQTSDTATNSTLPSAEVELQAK

[4] = target: T4, Aminopeptidase N (Plasmodium falciparum FcB1/Columbia, UniProt O96935); test: malaria alanyl aminopeptidase activity blockers – biochemical, fluorogenic H-Leu-NHMec substrate, 1536-well (AID 1445); set-up: species or system Plasmodium falciparum 3D7, 3D7
T4 sequence (O96935 whole entry): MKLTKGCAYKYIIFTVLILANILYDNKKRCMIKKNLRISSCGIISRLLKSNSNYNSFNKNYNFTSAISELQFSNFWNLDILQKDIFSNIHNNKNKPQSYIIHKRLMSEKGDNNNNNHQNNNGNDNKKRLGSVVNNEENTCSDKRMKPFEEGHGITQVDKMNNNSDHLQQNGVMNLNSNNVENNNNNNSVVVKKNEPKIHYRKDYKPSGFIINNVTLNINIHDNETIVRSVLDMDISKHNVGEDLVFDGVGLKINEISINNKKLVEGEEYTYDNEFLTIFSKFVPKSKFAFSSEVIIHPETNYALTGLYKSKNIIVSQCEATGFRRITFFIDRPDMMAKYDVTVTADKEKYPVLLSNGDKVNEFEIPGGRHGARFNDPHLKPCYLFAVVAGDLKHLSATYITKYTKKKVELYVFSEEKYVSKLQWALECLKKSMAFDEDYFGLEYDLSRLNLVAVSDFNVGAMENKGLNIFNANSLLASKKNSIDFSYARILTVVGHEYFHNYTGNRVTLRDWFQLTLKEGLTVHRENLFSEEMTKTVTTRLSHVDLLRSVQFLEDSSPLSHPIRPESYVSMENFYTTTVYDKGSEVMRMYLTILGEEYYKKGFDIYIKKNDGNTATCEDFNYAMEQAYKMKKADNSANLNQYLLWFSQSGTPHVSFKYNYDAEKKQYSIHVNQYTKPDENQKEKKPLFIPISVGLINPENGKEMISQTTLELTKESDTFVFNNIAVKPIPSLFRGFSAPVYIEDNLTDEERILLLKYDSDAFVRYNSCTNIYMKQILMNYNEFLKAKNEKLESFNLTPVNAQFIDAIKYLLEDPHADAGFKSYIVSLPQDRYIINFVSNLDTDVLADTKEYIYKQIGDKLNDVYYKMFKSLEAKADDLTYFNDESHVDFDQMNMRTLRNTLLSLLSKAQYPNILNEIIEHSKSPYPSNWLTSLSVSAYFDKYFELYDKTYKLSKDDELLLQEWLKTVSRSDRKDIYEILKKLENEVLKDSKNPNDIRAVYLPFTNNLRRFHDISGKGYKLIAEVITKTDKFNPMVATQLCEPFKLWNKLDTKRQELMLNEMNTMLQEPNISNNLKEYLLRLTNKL

[5] = target: Cytochrome P450 2C19 (Homo sapiens, UniProt P33261); test: Cytochrome panel assay with activity outcomes. Panel member name: p450-cyp2c19 Compounds with AC50 equal or less than 10 uM are considered active; assay type: functional; details: read-out: AC50
Chain of Cytochrome P450 2C19 (P33261 whole entry): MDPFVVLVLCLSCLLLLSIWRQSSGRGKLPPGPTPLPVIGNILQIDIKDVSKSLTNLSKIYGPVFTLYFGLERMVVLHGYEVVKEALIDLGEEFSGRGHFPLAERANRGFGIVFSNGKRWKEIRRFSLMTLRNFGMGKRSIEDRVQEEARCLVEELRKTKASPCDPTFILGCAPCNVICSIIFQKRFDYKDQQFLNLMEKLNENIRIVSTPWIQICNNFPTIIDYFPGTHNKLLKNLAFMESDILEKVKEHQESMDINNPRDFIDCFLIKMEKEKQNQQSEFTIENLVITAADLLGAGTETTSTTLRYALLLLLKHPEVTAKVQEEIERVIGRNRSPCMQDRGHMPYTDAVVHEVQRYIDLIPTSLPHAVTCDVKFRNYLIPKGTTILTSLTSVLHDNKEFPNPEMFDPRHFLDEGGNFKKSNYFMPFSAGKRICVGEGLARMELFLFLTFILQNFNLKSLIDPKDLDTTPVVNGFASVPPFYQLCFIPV

[6] = target: T5, DNA repair and recombination protein RAD54-like (Homo sapiens, UniProt Q92698); test: RAD54 Holliday junction migration blockers – biochemical, fluorescence, cherry-picked samples, dose series, confirmation (AID 651657); assay type: functional
T5 sequence (Q92698 whole entry): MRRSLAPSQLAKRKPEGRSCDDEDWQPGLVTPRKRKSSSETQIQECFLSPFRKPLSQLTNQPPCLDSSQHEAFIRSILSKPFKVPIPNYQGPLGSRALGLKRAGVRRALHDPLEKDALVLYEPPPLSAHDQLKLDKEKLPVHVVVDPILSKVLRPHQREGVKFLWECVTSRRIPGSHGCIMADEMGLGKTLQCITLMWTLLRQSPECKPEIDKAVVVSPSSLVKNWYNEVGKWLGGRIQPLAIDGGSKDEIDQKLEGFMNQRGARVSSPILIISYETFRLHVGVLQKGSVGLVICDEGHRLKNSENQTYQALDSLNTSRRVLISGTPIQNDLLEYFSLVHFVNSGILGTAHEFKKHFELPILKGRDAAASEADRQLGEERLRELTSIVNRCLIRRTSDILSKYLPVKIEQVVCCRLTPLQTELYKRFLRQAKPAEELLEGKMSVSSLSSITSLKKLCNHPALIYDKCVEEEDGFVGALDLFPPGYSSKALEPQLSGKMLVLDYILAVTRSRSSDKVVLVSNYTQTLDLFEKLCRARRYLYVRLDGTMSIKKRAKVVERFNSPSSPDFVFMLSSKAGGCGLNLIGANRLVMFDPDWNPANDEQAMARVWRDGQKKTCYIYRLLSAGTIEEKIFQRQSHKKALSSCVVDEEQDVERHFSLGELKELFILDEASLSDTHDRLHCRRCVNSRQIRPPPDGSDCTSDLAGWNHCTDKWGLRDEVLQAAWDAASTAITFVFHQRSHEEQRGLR

[7] = target: T6, Cytochrome P450 1A2 (Homo sapiens, UniProt P05177);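 further: PubChem cytochrome P450 panel assay, CYP1A2 panel member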
T6 sequence (P05177 whole entry): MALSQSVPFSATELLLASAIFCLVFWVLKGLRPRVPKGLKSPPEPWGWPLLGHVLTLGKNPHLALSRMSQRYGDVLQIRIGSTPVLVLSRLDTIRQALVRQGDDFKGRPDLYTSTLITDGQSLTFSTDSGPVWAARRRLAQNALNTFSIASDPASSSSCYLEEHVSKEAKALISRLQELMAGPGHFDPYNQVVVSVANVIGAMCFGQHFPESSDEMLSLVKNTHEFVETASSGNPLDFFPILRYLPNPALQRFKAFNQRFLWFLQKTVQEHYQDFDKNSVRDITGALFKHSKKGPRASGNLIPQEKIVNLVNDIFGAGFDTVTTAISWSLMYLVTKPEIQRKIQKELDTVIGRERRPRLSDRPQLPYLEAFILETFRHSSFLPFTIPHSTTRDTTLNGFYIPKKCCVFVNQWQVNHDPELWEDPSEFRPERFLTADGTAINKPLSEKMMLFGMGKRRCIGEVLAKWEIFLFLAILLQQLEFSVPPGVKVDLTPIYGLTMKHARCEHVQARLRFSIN

[8] = target: Cytochrome P450 3A4 (Homo sapiens, UniProt P08684);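 further: CYP3A4 tested as one member of a cytochrome P450 panel screen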
Chain of Cytochrome P450 3A4 (P08684 whole entry): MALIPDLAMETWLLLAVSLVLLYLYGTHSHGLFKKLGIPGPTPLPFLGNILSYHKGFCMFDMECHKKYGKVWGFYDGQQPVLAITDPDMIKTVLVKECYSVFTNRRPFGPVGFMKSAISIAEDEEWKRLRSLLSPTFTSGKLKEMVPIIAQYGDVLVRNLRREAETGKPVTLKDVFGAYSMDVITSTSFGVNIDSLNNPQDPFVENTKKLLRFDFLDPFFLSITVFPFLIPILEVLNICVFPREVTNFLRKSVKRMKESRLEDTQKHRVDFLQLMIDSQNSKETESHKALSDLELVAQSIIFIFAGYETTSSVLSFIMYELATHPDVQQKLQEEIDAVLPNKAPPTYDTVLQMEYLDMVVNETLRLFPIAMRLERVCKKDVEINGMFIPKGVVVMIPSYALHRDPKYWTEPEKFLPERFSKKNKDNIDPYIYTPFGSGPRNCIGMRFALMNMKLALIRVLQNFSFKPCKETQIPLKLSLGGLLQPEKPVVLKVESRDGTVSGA

[9] = target: Cytochrome P450 2D6 (Homo sapiens, UniProt P10635);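 further: CYP2D6 member of a cytochrome P450 panel assay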
Chain of Cytochrome P450 2D6 (P10635 whole entry): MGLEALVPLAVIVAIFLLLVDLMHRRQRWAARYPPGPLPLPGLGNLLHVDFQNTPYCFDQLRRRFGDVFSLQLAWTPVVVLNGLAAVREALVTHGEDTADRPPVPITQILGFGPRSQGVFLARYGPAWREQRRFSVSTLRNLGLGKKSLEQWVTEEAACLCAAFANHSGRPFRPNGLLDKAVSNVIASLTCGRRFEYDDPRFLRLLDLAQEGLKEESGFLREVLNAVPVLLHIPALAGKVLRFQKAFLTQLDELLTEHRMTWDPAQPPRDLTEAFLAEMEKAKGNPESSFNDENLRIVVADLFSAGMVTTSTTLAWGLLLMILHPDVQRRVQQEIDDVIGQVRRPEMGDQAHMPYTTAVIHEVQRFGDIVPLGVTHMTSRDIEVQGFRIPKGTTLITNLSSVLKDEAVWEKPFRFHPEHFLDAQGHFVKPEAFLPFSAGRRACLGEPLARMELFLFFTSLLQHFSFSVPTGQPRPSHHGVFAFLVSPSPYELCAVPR

| SMILES | IC50 [1] | Ki [3] | further results |
| --- | --- | --- | --- |
| COC(=O)c1ccc(-c2ccc(Cl)cc2)nc1C | 82.5 µM (inactive) |  |  |
| CNCCC1Sc2ccccc2Oc2ccccc21 (stereo not given) |  |  | AC50 [2]: > 20 µM (inactive) |
| Clc1ccc2oc(SCc3cccnc3)nc2c1 | 33.5 µM (active) |  |  |
| CCOC(=O)CCn1nc(-c2ccc(Cl)cc2)cc1N |  | > 66.7 µM (inactive) |  |
| CCCN(CCC)CCCNC(=O)c1cc2cc3ccc(OC)cc3nc2o1 |  |  | IC50 [4]: 45.9 µM (active); AC50 [5]: 20 µM (inconclusive); AC50 [6]: 31.6 µM (active); AC50 [7]: 20 µM (inconclusive); AC50 [8]: 15.8 µM (inconclusive) |
| O=C(C1=C(O)C(=O)N(CC2CCCO2)C1c1cccnc1)c1ccco1 (stereo not given) |  | 54.8 µM (inactive) |  |
| CCNCCC(=O)N1c2ccccc2Sc2ccc(C(F)(F)F)cc21 |  |  | AC50 [2]: > 20 µM (inactive) |
| CCc1nn2c(=O)cc(CSc3nc4sc5c(c4c(=O)n3C)CCCC5)nc2s1 |  | > 66.7 µM (inactive) |  |
| O=C(COc1ccccc1)N/N=C/c1sc(=O)n(Cc2cccc(C(=O)O)c2)c1Cl |  |  | AC50 [2]: > 20 µM (inactive) |
| Clc1ccccc1-c1nc(-c2ccncc2)no1 [PIFEXOLE] | 11.2 µM (active) and 18.8 µM (active) |  | AC50 [9]: 3.16 µM (inconclusive); AC50 [8]: 2 µM (inconclusive) |

Second part, led by results:

| IC50 [1] | Ki [3] | SMILES | further results |
| --- | --- | --- | --- |
|  | > 66.7 µM (inactive) | CCSc1nnc(NC(=O)CSc2nnc(Cc3cccn3C)n2CCc2ccccc2)s1 |  |
| > 100 µM (inactive) |  | O=C(Nc1ccc2nc(-c3ccccc3)oc2c1)c1ccco1 |  |
|  | > 66.7 µM (inactive) | CCOc1cc(C(=O)NCc2nnc(SCC(=O)OC)n2C)cc(OCC)c1OCC |  |
| > 100 µM (inactive) |  | Cc1nn(C(=O)CCC(=O)NCc2cccc(F)c2)c2ccccc12 |  |
